Results published in publication PMC9180926, “Discovery of Novel 3-Hydroxyquinazoline-2,4(1H,3H)-Dione Derivatives: A Series of Metal Ion Chelators with Potent Anti-HCV Activities” (International Journal of Molecular Sciences, 2022).

Legend:
[1] = biological target: T1, C-terminal His-tagged NS5BΔ21 from HCV 1b subtype (Hepatitis C virus genotype 1b, UniProt Q913V3); experiment: Thermal shift assay with NS5B protein; assay type: binding
T1 construct: C-terminal His-tagged NS5BΔ21 from HCV 1b subtype; His tag (C); made in house
From the text: The stability of a protein system is enhanced after binding to its specific ligand, leading to an increase in the melting temperature (Tm). Taking advantage of this feature, the thermal shift assay was extensively used to assess the binding of small molecules to the protein targets. The metal ion chelators were thought to exert an anti-HCV effect by chelating with Mg^2+ in the catalytic center of NS5B [34, 36, 38]. […] C-terminal His-tagged NS5BΔ21 from HCV 1b subtype was used as the protein in the experiment. Compared with the blank control (DMSO), the fluorescence–temperature curves of the NS5B system in the presence of 21e (Figure 3A) and 21k (Figure 3B) at 50 μM, 100 μM, and 200 μM all shifted to the right of the axis. The Tm values of 21e and 21k increased in a concentration-dependent manner, presenting higher values than that of the blank control (Tm = 63.5 °C) at all tested concentrations.
C-terminal His-tagged NS5BΔ21 from HCV 1b subtype was expressed from pET28a HCR6 plasmid in our lab and dissolved in a Tris-HCl buffer (20 mm, pH 7.2) containing 150 mm NaCl. Then, 1 μL of corresponding concentration (1 mm, 2 mm, or 4 mm) of the test compound in DMSO or 1 μL DMSO alone was added to each well of a 96-well PCR plate (Shanghai Sangon Biotech Co., Ltd., Shanghai, China). Subsequently, 19 μL of pre-prepared PBS solution containing 10 mm MgCl2, 10× SYPRO® orange protein gel stain (Sigma-Aldrich, St. Louis, MO, USA), and 5 μM NS5B protein was added to each well and mixed. The final concentration of DMSO in each well was 5%. The PCR plate was covered with a high-permeable film, incubated at room temperature for 10 min, and then placed on the Applied Biosystems^TM 7500 Real-Time PCR System (Thermo Fisher Scientific, Waltham, MA, USA). The temperature was increased to 90 °C gradually, and the change curve of fluorescence intensity versus system temperature was recorded.

[2] = Cytotoxicity assay (CCK-8) on replicon cells; assay type: cell-based; conditions: human, HCV 1b replicon cells (Huh-7.5.1); 50% cytotoxic concentration; CCK-8, HCV 1b replicon cells, 72 h
[3] = system: HCV 1b replicon cells (Huh-7.5.1); experiment: Anti-HCV assay, HCV 1b replicon cells with luciferase reporter; assay type: cell-based, hepatitis C virus (HCV) subtype 1b; conditions: Hepatitis C virus, HCV 1b replicon cells

T1 sequence (Q913V3 2420-2989, stated change not applied): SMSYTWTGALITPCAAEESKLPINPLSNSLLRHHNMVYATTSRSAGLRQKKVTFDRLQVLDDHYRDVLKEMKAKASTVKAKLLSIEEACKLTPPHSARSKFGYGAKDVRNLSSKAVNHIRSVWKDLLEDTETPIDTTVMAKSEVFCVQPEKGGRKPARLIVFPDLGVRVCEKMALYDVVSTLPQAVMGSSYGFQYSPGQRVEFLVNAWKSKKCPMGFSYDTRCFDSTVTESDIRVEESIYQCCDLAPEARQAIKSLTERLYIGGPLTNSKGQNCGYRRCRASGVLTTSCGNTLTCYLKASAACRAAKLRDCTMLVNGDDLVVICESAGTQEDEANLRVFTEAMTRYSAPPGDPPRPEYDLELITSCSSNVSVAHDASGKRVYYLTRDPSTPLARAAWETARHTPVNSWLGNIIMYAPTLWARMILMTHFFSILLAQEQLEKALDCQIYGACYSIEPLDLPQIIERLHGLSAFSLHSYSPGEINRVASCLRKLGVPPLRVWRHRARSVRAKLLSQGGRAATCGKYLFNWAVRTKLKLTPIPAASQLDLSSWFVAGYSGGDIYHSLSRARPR

## O=c1[nH]c2cc(-c3ccccc3)ccc2c(=O)n1O [21e, 3-Hydroxy-7-phenylquinazoline-2,4(1H,3H)-dione]
[1]; compound 50 μM, Tm of compound group minus Tm of blank control, mean ± SD, three experiments
  ΔTm at 50 µM: 0.6 ± 0.15 °C
[1]; compound 100 μM, Tm of compound group minus Tm of blank control, mean ± SD, three experiments
  ΔTm at 100 µM: 0.85 ± 0.02 °C
[1]; compound 200 μM, Tm of compound group minus Tm of blank control, mean ± SD, three experiments
  ΔTm 200 μM: 1.5 ± 0.01 °C
[1]; in Figure 3, blank control Tm = 63.5 °C
  Tm of NS5B complexed with compound: 65.0 °C
[1]; read-out: ΔTm 200 μM, compound 200 μM, Tm of compound group minus Tm of blank control, mean ± SD, three experiments
  ΔTm at 200 µM: 1.6 °C
[2]
  CC50 at 72 h: 5.4 ± 0.6 µM
[3]; Huh-7.5.1, 50% effective concentration, mean ± SD
  EC50: 3.2 ± 0.04 µM
[3]; Huh-7.5.1, 72 h, inhibitory rate at 10 μM, 72 h, read-out: HCV Inhibition 10 μM
  inhibition at 10 µM: 78.1%
